Experiments:
[1] = biological target: T1, Melanocyte-stimulating hormone receptor (Homo sapiens, UniProt Q01726); test: Displacement of [125I]NDP-alpha-MSH from human MC1R expressed in HEK293 cells by competitive binding assay; type: cell-based
Target sequence in this assay (Q01726 whole entry): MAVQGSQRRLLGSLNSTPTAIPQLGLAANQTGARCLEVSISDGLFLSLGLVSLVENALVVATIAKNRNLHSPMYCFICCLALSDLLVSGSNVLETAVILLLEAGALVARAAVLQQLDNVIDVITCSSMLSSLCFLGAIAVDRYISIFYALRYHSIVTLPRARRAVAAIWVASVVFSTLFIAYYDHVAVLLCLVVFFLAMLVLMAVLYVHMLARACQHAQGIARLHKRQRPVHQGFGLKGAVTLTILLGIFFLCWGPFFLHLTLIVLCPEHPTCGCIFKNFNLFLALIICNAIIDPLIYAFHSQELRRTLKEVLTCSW

Melanocortin receptor 5 [2] = biological target: T2, Melanocortin receptor 5 (Homo sapiens, UniProt P33032); test: Displacement of [125I]NDP-alpha-MSH from human MC5R expressed in HEK293 cells by competitive binding assay; type: cell-based
Melanocortin receptor 4 [3] = biological target: T3, Melanocortin receptor 4 (Homo sapiens, UniProt P32245); test: Displacement of [125I]NDP-alpha-MSH from human MC4R expressed in HEK293 cells by competitive binding assay; type: cell-based
Melanocortin receptor 3 [4] = biological target: T4, Melanocortin receptor 3 (Homo sapiens, UniProt P41968); test: Displacement of [125I]NDP-alpha-MSH from human MC3R expressed in HEK293 cells by competitive binding assay; type: cell-based
Melanocortin receptor 4 [5] = biological target: T3, Melanocortin receptor 4; test: Agonist activity at human MC4R expressed in HEK293 cells assessed as maximal intracellular cAMP accumulation by fluorescence based analysis; type: functional, cell-based
Melanocortin receptor 3 [6] = biological target: T4, Melanocortin receptor 3; test: Agonist activity at human MC3R expressed in HEK293 cells assessed as maximal intracellular cAMP accumulation by fluorescence based analysis; type: functional, cell-based
Melanocortin receptor 3 [7] = biological target: T4, Melanocortin receptor 3; test: Agonist activity at human MC3R expressed in HEK293 cells assessed as maximal intracellular cAMP accumulation at 10 uM by fluorescence based analysis relative to control; type: functional, cell-based; settings: filed as agonist
Melanocortin receptor 5 [8] = biological target: T2, Melanocortin receptor 5; test: Agonist activity at human MC5R expressed in HEK293 cells assessed as maximal intracellular cAMP accumulation by fluorescence based analysis; type: functional, cell-based
Melanocortin receptor 5 [9] = biological target: T2, Melanocortin receptor 5; test: Agonist activity at human MC5R expressed in HEK293 cells assessed as maximal intracellular cAMP accumulation at 10 uM by fluorescence based analysis relative to control; type: functional, cell-based; settings: filed as agonist
[10] = biological target: T1, Melanocyte-stimulating hormone receptor; test: Agonist activity at human MC1R expressed in HEK293 cells assessed as maximal intracellular cAMP accumulation at 10 uM by fluorescence based analysis relative to control; type: functional, cell-based; settings: filed as agonist
Target sequence in this assay (Q01726 whole entry, looked up): as the sequence (Q01726 whole entry) above

[11] = biological target: T1, Melanocyte-stimulating hormone receptor; test: Agonist activity at human MC1R expressed in HEK293 cells assessed as maximal intracellular cAMP accumulation by fluorescence based analysis; type: functional, cell-based
Target sequence in this assay (Q01726 whole entry): as above

Melanocortin receptor 5 [12] = biological target: T2, Melanocortin receptor 5; test: Agonist activity at human MC5R expressed in HEK293 cells assessed as cAMP accumulation at 10 uM by fluorescence based analysis relative to control; type: functional, cell-based

T3 sequence (P32245 whole entry): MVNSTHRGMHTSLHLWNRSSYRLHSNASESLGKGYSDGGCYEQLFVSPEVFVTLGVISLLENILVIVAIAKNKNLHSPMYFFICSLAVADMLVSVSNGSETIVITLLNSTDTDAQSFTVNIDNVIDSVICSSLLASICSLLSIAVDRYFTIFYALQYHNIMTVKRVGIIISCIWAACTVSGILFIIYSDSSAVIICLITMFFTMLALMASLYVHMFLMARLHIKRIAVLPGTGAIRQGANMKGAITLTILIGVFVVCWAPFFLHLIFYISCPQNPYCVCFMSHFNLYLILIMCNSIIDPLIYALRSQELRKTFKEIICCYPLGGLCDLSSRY
T4 sequence (P41968 whole entry): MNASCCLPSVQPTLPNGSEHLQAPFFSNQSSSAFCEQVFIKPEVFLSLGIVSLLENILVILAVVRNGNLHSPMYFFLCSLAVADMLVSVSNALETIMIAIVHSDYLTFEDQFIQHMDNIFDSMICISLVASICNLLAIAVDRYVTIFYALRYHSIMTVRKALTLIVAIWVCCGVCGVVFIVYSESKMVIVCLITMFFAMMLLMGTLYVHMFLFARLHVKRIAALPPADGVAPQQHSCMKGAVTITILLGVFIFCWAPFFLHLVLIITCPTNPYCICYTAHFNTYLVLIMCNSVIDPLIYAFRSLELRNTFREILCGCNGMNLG
T2 sequence (P33032 whole entry): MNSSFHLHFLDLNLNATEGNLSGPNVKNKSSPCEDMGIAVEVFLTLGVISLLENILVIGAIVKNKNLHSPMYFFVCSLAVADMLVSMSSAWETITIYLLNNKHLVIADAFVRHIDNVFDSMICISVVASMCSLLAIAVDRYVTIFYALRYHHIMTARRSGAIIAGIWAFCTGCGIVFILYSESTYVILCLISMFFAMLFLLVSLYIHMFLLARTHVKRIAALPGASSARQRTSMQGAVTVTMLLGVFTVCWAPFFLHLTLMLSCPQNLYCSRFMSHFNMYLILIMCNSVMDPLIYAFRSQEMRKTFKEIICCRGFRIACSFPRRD

Row | SMILES | IC50 [1] | IC50 (Melanocortin receptor 5 [2]) | IC50 (Melanocortin receptor 4 [3]) | IC50 (Melanocortin receptor 3 [4]) | EC50 (Melanocortin receptor 4 [5]) | EC50 (Melanocortin receptor 3 [6]) | Activity (Melanocortin receptor 3 [7]) | EC50 (Melanocortin receptor 5 [8]) | Activity (Melanocortin receptor 5 [9]) | Activity [10] | EC50 [11] | Activity (Melanocortin receptor 5 [12])
1 | CCCC[C@H](NC(C)=O)C(=O)N[C@@H]1C(=O)N[C@@H](Cc2c[nH]cn2)C(=O)N[C@H](Cc2ccccc2)C(=O)N[C@@H](CCCNC(=N)N)C(=O)N[C@@H](Cc2c[nH]c3ccccc23)C(=O)N[C@H](C(N)=O)CSCc2ccc(cc2)CSC1(C)C | 227 nM | 422 nM | > 1000 nM | > 1000 nM | – | – | – | – | – | – | – | –
2 | CCCC[C@H](NC(C)=O)C(=O)N[C@@H]1C(=O)N[C@@H](Cc2c[nH]cn2)C(=O)N[C@H](Cc2ccccc2)C(=O)N[C@@H](CCCNC(=N)N)C(=O)N[C@@H](Cc2c[nH]c3ccccc23)C(=O)N[C@H](C(N)=O)C(C)(C)SCc2ccccc2CSC1(C)C | 553 nM | 507 nM | > 1000 nM | 452 nM | – | – | – | – | – | – | – | –
3 | CCCC[C@H](NC(C)=O)C(=O)N[C@@H]1C(=O)N[C@@H](Cc2c[nH]cn2)C(=O)N[C@H](Cc2ccccc2)C(=O)N[C@@H](CCCNC(=N)N)C(=O)N[C@@H](Cc2c[nH]c3ccccc23)C(=O)N[C@H](C(N)=O)CSCc2ccccc2CSC1(C)C | 150 nM | 157 nM | 619 nM | 222 nM | – | – | – | – | – | – | – | –
4 | CCCC[C@H](NC(C)=O)C(=O)N[C@@H]1C(=O)N[C@@H](Cc2c[nH]cn2)C(=O)N[C@H](Cc2ccccc2)C(=O)N[C@@H](CCCNC(=N)N)C(=O)N[C@@H](Cc2c[nH]c3ccccc23)C(=O)N[C@H](C(N)=O)CSCc2cccc(c2)CSC1(C)C | 70 nM | 93.5 nM | 628 nM | 244 nM | 618 nM | 9.4 nM | 100% | 126 nM | 100% | 100% | > 1000 nM | –
5 | CCCC[C@H](NC(C)=O)C(=O)N[C@H]1CSCc2cccc(c2)CSC[C@@H](C(N)=O)NC(=O)[C@H](Cc2c[nH]c3ccccc23)NC(=O)[C@H](CCCNC(=N)N)NC(=O)[C@@H](Cc2ccccc2)NC(=O)[C@H](Cc2c[nH]cn2)NC1=O | 3.5 nM | 4.4 nM | – | 32 nM | – | 902 nM | – | > 1000 nM | – | – | 3 nM | –
6 | CCCC[C@H](NC(C)=O)C(=O)N[C@H]1CSCc2cccc(c2)CSC(C)(C)[C@@H](C(N)=O)NC(=O)[C@H](Cc2c[nH]c3ccccc23)NC(=O)[C@H](CCCNC(=N)N)NC(=O)[C@@H](Cc2ccccc2)NC(=O)[C@H](Cc2c[nH]cn2)NC1=O | 9 nM | 30 nM | – | 71 nM | – | 435 nM | – | > 1000 nM | – | – | 6.5 nM | –
7 | CCCC[C@H](NC(C)=O)C(=O)N[C@H]1CSCc2ccccc2CSC(C)(C)[C@@H](C(N)=O)NC(=O)[C@H](Cc2c[nH]c3ccccc23)NC(=O)[C@H](CCCNC(=N)N)NC(=O)[C@@H](Cc2ccccc2)NC(=O)[C@H](Cc2c[nH]cn2)NC1=O | 44 nM | 46 nM | 45.8 nM | 74 nM | > 1000 nM | > 1000 nM | 100% | – | 100% | 100% | 6.1 nM | 0%
8 | CCCC[C@H](NC(C)=O)C(=O)N[C@@H]1C(=O)N[C@@H](Cc2c[nH]cn2)C(=O)N[C@H](Cc2ccccc2)C(=O)N[C@@H](CCCNC(=N)N)C(=O)N[C@@H](Cc2c[nH]c3ccccc23)C(=O)N[C@H](C(N)=O)C(C)(C)SCc2cccc(c2)CSC1(C)C | 450 nM | 172 nM | > 1000 nM | 450 nM | – | – | – | – | – | – | – | –
9 | CCCC[C@H](NC(C)=O)C(=O)N[C@@H]1C(=O)N[C@@H](Cc2c[nH]cn2)C(=O)N[C@H](Cc2ccccc2)C(=O)N[C@@H](CCCNC(=N)N)C(=O)N[C@@H](Cc2c[nH]c3ccccc23)C(=O)N[C@H](C(N)=O)C(C)(C)SCc2ccc(cc2)CSC1(C)C | > 1000 nM | > 1000 nM | > 1000 nM | > 1000 nM | – | – | – | – | – | – | – | –
10 | CCCC[C@H](NC(C)=O)C(=O)N[C@H]1CSCc2ccccc2CSC[C@@H](C(N)=O)NC(=O)[C@H](Cc2c[nH]c3ccccc23)NC(=O)[C@H](CCCNC(=N)N)NC(=O)[C@@H](Cc2ccccc2)NC(=O)[C@H](Cc2c[nH]cn2)NC1=O | 275 nM | 78 nM | 9.1 nM | 302 nM | 360 nM | > 1000 nM | 100% | > 1000 nM | 100% | 100% | 107 nM | –
11 | CCCC[C@H](NC(C)=O)C(=O)N[C@H]1CSCc2ccc(cc2)CSC[C@@H](C(N)=O)NC(=O)[C@H](Cc2c[nH]c3ccccc23)NC(=O)[C@H](CCCNC(=N)N)NC(=O)[C@@H](Cc2ccccc2)NC(=O)[C@H](Cc2c[nH]cn2)NC1=O | 7.3 nM | 2 nM | – | 24 nM | – | 645 nM | – | > 1000 nM | – | – | 4 nM | –
12 | CCCC[C@H](NC(C)=O)C(=O)N[C@H]1CSCc2ccc(cc2)CSC(C)(C)[C@@H](C(N)=O)NC(=O)[C@H](Cc2c[nH]c3ccccc23)NC(=O)[C@H](CCCNC(=N)N)NC(=O)[C@@H](Cc2ccccc2)NC(=O)[C@H](Cc2c[nH]cn2)NC1=O | 19 nM | 69 nM | 57.2 nM | 64 nM | 219 nM | 246 nM | 100% | 48 nM | 100% | 100% | 3 nM | –

— ChEMBL document CHEMBL5154752, “CLIPSing Melanotan-II to Discover Multiple Functionally Selective hMCR Agonists” (J Med Chem, 2022)
